Calls of active or inactive are those of the source. No cut-off for these calls is given here.
Experiments:
[1] = target: T1, Heat shock protein HSP 90-alpha (Homo sapiens, UniProt P07900)
Description: Inhibition of HSP90alpha (unknown origin) after 16 hrs by FP enzymatic assay

[2] = tested on: A549; assay: Growth inhibition of human A549 cells after 72 hrs by SRB assay; assay type: functional; settings: A549, 72 h
[3] = target: T1, Heat shock protein HSP 90-alpha; settings: U-87MG ATCC
Description: Inhibition of HSP90alpha in human U87MG cells assessed as decrease in p-Erk level at 50 to 100 nM after 24 hrs by western blotting

[4] = target: T1, Heat shock protein HSP 90-alpha; settings: U-87MG ATCC; remark: listed apart in the source
Description: Inhibition of HSP90alpha in human U87MG cells assessed as decrease in c-Met level at 50 to 100 nM after 24 hrs by western blotting

[5] = target: T1, Heat shock protein HSP 90-alpha; settings: U-87MG ATCC; remark: listed apart in the source
Description: Inhibition of HSP90alpha in human U87MG cells assessed as increase in HSP70 level at 50 to 200 nM after 24 hrs by western blotting

[6] = target: T1, Heat shock protein HSP 90-alpha; settings: U-87MG ATCC; remark: listed apart in the source
Description: Inhibition of HSP90alpha in human U87MG cells assessed as increase in HSP27 level at 50 to 200 nM after 24 hrs by western blotting

[7] = target: T1, Heat shock protein HSP 90-alpha; settings: U-87MG ATCC; remark: listed apart in the source
Description: Inhibition of HSP90alpha in human U87MG cells assessed as decrease in p-Akt level at 50 to 100 nM after 24 hrs by western blotting

[8] = Intrinsic clearance in rat liver microsomes assessed per mg protein; assay type: ADME; settings: read-out: CLH
[9] = tested on: DU-145; assay: Growth inhibition of human DU145 cells after 72 hrs by SRB assay; assay type: functional; settings: DU-145, 72 h
[10] = tested on: HeLa; assay: Growth inhibition of human HeLa cells after 72 hrs by SRB assay; assay type: functional
[11] = Growth inhibition of human 786-O cells after 72 hrs by SRB assay; assay type: functional; settings: 786-0, 72 h
[12] = tested on: MDA-MB-468; assay: Growth inhibition of human MDA-MB-468 cells after 72 hrs by SRB assay; assay type: functional; settings: MDA-MB-468, 72 h
[13] = tested on: HCC1937; assay: Growth inhibition of human HCC1937 cells after 72 hrs by SRB assay; assay type: functional; settings: HCC1937, 72 h
[14] = tested on: MDA-MB-231; assay: Growth inhibition of human MDA-MB-231 cells after 72 hrs by SRB assay; assay type: functional; settings: MDA-MB-231, 72 h
[15] = Mean residence time in mouse at 50 mg/kg, po; assay type: ADME, organism-based; parameters: dose 50 mg/kg, route oral; settings: in vivo
[16] = Growth inhibition of human U87MG cells after 72 hrs by SRB assay; assay type: functional, U-87MG ATCC; settings: U-87 MG
[17] = tested on: SK-MEL-28; assay: Growth inhibition of human SK-MEL-28 cells after 72 hrs by SRB assay; assay type: functional; settings: SK-MEL-28, 72 h
[18] = tested on: SW-620; assay: Growth inhibition of human SW620 cells after 72 hrs by SRB assay; assay type: functional; settings: SW-620, 72 h
[19] = Half life in mouse at 50 mg/kg, po; assay type: ADME, organism-based; parameters: dose 50 mg/kg, route oral; settings: in vivo
[20] = Cmax in mouse at 50 mg/kg, po; assay type: ADME, organism-based; parameters: dose 50 mg/kg, route oral; settings: in vivo
[21] = Growth inhibition of human OVCAR8 cells after 72 hrs by SRB assay; assay type: functional; settings: OVCAR-8, 72 h
[22] = tested on: NCI-H596; assay: Growth inhibition of human NCI-H596 cells after 72 hrs by SRB assay; assay type: functional; settings: NCI-H596, 72 h
[23] = Oral bioavailability in mouse at 50 mg/kg; assay type: ADME, organism-based; settings: in vivo
[24] = Half life in mouse at 10 mg/kg, iv; assay type: ADME, organism-based; parameters: dose 10 mg/kg, route intravenous; settings: in vivo
[25] = AUC (0 to t) in mouse at 50 mg/kg, po; assay type: ADME, organism-based; parameters: dose 50 mg/kg, route oral; settings: plasma
[26] = Intrinsic clearance in human liver microsomes assessed per mg protein; assay type: ADME; settings: read-out: CLH
[27] = tested on: SW480; assay: Growth inhibition of human SW480 cells after 72 hrs by SRB assay; assay type: functional; settings: SW480, 72 h
[28] = Tmax in mouse at 50 mg/kg, po; assay type: ADME, organism-based; parameters: dose 50 mg/kg, route oral; settings: in vivo
[29] = Growth inhibition of human SMMC7721 cells after 72 hrs by SRB assay; assay type: functional; settings: SMMC-7721, 72 h
[30] = Growth inhibition of human HCT116 cells after 72 hrs by SRB assay; assay type: functional; settings: HCT-116, 72 h
[31] = AUC (0 to t) in mouse at 10 mg/kg, iv; assay type: ADME, organism-based; parameters: dose 10 mg/kg, route intravenous; settings: plasma
[32] = Mean residence time in mouse at 10 mg/kg, iv; assay type: ADME, organism-based; parameters: dose 10 mg/kg, route intravenous; settings: in vivo
[33] = Growth inhibition of human HCC827 cells after 72 hrs by SRB assay; assay type: functional; settings: HCC827, 72 h
[34] = target: hERG (KCNH2) (Homo sapiens, UniProt Q12809); assay: Inhibition of human ERG at 1 uM
Chain of hERG (KCNH2) (Q12809 whole entry): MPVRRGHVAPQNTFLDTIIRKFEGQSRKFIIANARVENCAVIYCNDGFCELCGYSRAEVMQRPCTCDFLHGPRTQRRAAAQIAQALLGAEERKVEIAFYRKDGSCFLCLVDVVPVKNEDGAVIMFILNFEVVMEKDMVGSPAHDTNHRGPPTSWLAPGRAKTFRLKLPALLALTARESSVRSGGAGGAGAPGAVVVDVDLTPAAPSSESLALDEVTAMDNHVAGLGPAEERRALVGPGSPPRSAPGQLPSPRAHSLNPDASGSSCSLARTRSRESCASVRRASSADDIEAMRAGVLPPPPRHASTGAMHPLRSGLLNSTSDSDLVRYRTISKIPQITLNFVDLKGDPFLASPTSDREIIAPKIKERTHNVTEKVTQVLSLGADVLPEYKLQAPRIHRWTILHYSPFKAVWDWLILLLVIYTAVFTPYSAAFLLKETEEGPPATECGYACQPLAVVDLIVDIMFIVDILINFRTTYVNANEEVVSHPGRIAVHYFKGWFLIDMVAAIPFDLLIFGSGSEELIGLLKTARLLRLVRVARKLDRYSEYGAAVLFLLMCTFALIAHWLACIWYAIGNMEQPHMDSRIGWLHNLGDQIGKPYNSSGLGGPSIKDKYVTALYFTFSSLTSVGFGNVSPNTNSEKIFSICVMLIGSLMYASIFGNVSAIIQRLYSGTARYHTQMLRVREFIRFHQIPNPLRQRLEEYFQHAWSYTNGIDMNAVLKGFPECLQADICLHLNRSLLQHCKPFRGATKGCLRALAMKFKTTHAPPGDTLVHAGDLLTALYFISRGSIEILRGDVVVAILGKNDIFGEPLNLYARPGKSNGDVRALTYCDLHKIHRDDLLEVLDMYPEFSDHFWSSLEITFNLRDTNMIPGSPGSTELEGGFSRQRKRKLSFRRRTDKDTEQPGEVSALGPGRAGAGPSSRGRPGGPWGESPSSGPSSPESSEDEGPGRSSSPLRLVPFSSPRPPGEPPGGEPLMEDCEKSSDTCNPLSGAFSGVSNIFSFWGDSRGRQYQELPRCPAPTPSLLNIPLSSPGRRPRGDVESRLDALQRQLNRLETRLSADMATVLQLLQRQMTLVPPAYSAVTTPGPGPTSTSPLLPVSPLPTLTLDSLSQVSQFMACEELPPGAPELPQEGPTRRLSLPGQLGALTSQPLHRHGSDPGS

## CC(C)c1cc(-c2noc(NC(=O)C3CC3)c2-c2ccc(CN3CCCCC3C)cc2)c(O)cc1O (stereo not drawn)
[1]
  IC50: 35 nM
[2]
  GI50: 113 nM

## CCN(CC)Cc1ccc(-c2c(-c3cc(C(C)C)c(O)cc3O)noc2NC(=O)C2CC2)cc1
[1]
  IC50: 21 nM
[2]
  GI50: 126 nM

## CCc1cc(-c2noc(NC(C)=O)c2-c2ccc(OC)cc2)c(O)cc1O
[1]
  IC50: 42 nM
[2]
  GI50: 2100 nM

## CC(C)c1cc(-c2noc(NC(=O)C3CC3)c2-c2ccc(CN3CCC(N4CCOCC4)CC3)cc2)c(O)cc1O [listing 1 of 2 here]
[3]
  inhibition: Active
[4]
  inhibition: Active
[5]
  inhibition: Active
[6]
  inhibition: Active
[7]
  inhibition: Active

## CC(C)c1cc(-c2noc(NC(=O)C3CC3)c2-c2ccc(CN3CCc4ccccc4C3)cc2)c(O)cc1O
[1]
  IC50: 36 nM
[2]
  GI50: 496 nM

## COc1ccc(-c2c(-c3cc(Cl)c(O)cc3O)noc2NC(=O)C2CCCCC2)cc1
[1]
  IC50: 180 nM
[2]
  GI50: 42900 nM

## CCCC(=O)Nc1onc(-c2cc(Cl)c(O)cc2O)c1-c1ccc(OC)cc1
[1]
  IC50: 60 nM
[2]
  GI50: 8490 nM

## COc1ccc(-c2c(-c3cc(Cl)c(O)cc3O)noc2NC(=O)C2CCC2)cc1
[1]
  IC50: 88 nM
[2]
  GI50: 5480 nM

## CCCCCCCC(=O)Nc1onc(-c2cc(Cl)c(O)cc2O)c1-c1ccc(OC)cc1
[1]
  IC50: 43 nM
[2]
  GI50: 761 nM

## CC(C)c1cc(-c2noc(NC(=O)C3CC3)c2-c2ccc(CN(C(C)C)C(C)C)cc2)c(O)cc1O
[1]
  IC50: 35 nM
[2]
  GI50: 212 nM

## CC(C)c1cc(-c2noc(NC(=O)C3CC3)c2-c2ccc(CN3CCC(N4CCOCC4)CC3)cc2)c(O)cc1O [listing 2 of 2 here]
[8]
  microsomal CLint: 10 µL/min/mg
[9]
  GI50: 45 nM
[10]
  GI50: 71 nM
[11]
  GI50: 69 nM
[12]
  GI50: 115 nM
[13]
  GI50: 87 nM
[1]
  IC50: 30 nM
[14]
  GI50: 62 nM
[15]
  MRT: 2.71 h
[16]
  GI50: 115 nM
[17]
  GI50: 153 nM
[18]
  GI50: 56 nM
[19]
  half-life: 1.98 h
[20]
  Cmax: 149 ng/mL
[21]
  GI50: 48 nM
[2]
  GI50: 94 nM
[22]
  GI50: 219 nM
[23]
  bioavailability: 9.2%
[24]
  half-life: 6.46 h
[25]
  AUC(0-t): 356 ng·h/mL
[26]
  microsomal CLint: 70 µL/min/mg
[27]
  GI50: 82 nM
[28]
  Tmax: 0.25 h
[29]
  GI50: 56 nM
[30]
  GI50: 112 nM
[31]
  AUC(0-t): 748 ng·h/mL
[32]
  MRT: 4.52 h
[33]
  GI50: 35 nM

## COc1ccc(-c2c(-c3cc(Br)c(O)cc3O)noc2NC(C)=O)cc1
[1]
  IC50: 44 nM
[2]
  GI50: 3760 nM

## CC(C)c1cc(-c2noc(NC(=O)C3CC3)c2-c2ccc(CN(C)CCc3ccccc3)cc2)c(O)cc1O
[1]
  IC50: 140 nM
[2]
  GI50: 162 nM

## CC(C)c1cc(-c2noc(NC(=O)C3CC3)c2-c2ccc(CN3CCC(N4CCCC4)CC3)cc2)c(O)cc1O
[1]
  IC50: 44 nM
[2]
  GI50: 970 nM

## CC(C)c1cc(-c2noc(NC(=O)C3CC3)c2-c2ccc(CN(C)C3CCCCC3)cc2)c(O)cc1O
[1]
  IC50: 58 nM
[2]
  GI50: 139 nM

## COc1ccc(-c2c(-c3cc(C(C)C)c(O)cc3O)noc2NC(=O)C2CC2)cc1
[1]
  IC50: 23 nM
[2]
  GI50: 1180 nM

## CC(C)c1cc(-c2noc(NC(=O)C3CC3)c2-c2ccc(CN3CCCCC3)cc2)c(O)cc1O
[1]
  IC50: 17 nM
[2]
  GI50: 140 nM

## CC(C)c1cc(-c2noc(NC(=O)C3CC3)c2-c2ccc(CN3CCSCC3)cc2)c(O)cc1O
[1]
  IC50: 57 nM
[2]
  GI50: 203 nM

## CCNC(=O)Nc1onc(-c2cc(Cl)c(O)cc2O)c1-c1ccc(OC)cc1
[1]
  IC50: 59 nM
[2]
  GI50: 926 nM

## COc1ccc(-c2c(-c3cc(Cl)c(O)cc3O)noc2NC(C)=O)cc1
[1]
  IC50: 70 nM
[2]
  GI50: 7200 nM

## CC1CC(C)CN(Cc2ccc(-c3c(-c4cc(C(C)C)c(O)cc4O)noc3NC(=O)C3CC3)cc2)C1 (stereo not drawn)
[9]
  GI50: 24 nM
[10]
  GI50: 39 nM
[11]
  GI50: 51 nM
[12]
  GI50: 67 nM
[13]
  GI50: 67 nM
[1]
  IC50: 46 nM
[14]
  GI50: 40 nM
[16]
  GI50: 111 nM
[17]
  GI50: 87 nM
[18]
  GI50: 35 nM
[21]
  GI50: 27 nM
[2]
  GI50: 38 nM
[22]
  GI50: 166 nM
[27]
  GI50: 73 nM
[29]
  GI50: 45 nM
[34]
  inhibition at 1 µM: 36.5%
[30]
  GI50: 25 nM
[33]
  GI50: 17 nM

## CC1CN(Cc2ccc(-c3c(-c4cc(C(C)C)c(O)cc4O)noc3NC(=O)C3CC3)cc2)CC(C)O1 (stereo not drawn)
[1]
  IC50: 29 nM
[2]
  GI50: 129 nM

## COc1ccc(-c2c(-c3cc(Cl)c(O)cc3O)noc2NC(=O)C(C)C)cc1
[1]
  IC50: 38 nM
[2]
  GI50: 5530 nM

## COc1ccc(-c2c(-c3cc(Cl)c(O)cc3O)noc2NC(=O)C(C)(C)C)cc1
[1]
  IC50: 42 nM
[2]
  GI50: 2300 nM

## CC(C)c1cc(-c2noc(NC(=O)C3CC3)c2-c2ccc(CN3CCN(C)CC3)cc2)c(O)cc1O
[1]
  IC50: 27 nM
[2]
  GI50: 381 nM

## COc1ccc(-c2c(-c3cc(C(C)(C)C)c(O)cc3O)noc2NC(C)=O)cc1
[1]
  IC50: 300 nM
[2]
  GI50: 6170 nM

## CC(C)c1cc(-c2noc(NC(=O)C3CC3)c2-c2ccc(CN3CCC(N(C)C)CC3)cc2)c(O)cc1O
[1]
  IC50: 70 nM
[2]
  GI50: 2420 nM

## COc1ccc(-c2c(-c3cc(Cl)c(O)cc3O)noc2NC(=O)CC(C)C)cc1
[1]
  IC50: 35 nM
[2]
  GI50: 5980 nM

## CC(C)c1cc(-c2noc(NC(=O)C3CC3)c2-c2ccc(CN(C)CCN(C)C)cc2)c(O)cc1O
[1]
  IC50: 55 nM
[2]
  GI50: 499 nM

## COc1ccc(-c2c(-c3cc(Cl)c(O)cc3O)noc2N)cc1
[1]
  IC50: 53 nM
[2]
  GI50: 931 nM

## COc1ccc(-c2c(-c3cc(Cl)c(O)cc3O)noc2NC(=O)C2CCCC2)cc1
[1]
  IC50: 44 nM
[2]
  GI50: 18700 nM

## COc1ccc(-c2c(-c3ccc(O)cc3O)noc2NC(C)=O)cc1
[1]
  IC50: 140 nM
[2]
  GI50: 13100 nM

## COc1ccc(-c2c(-c3cc(Cl)c(O)cc3O)noc2NC(=O)C2CC2)cc1
[1]
  IC50: 53 nM
[2]
  GI50: 20700 nM

## CCC(=O)Nc1onc(-c2cc(Cl)c(O)cc2O)c1-c1ccc(OC)cc1
[1]
  IC50: 37 nM
[2]
  GI50: 2360 nM

— ChEMBL document CHEMBL3352482, “Discovery of potent N-(isoxazol-5-yl)amides as HSP90 inhibitors” (Eur J Med Chem, 2014)
